Test results as given in patent US20090036380A1, “Composition And Method For Brain Tumor Therapy” (Yeda Research and Development Co., Ltd., priority 2006, published 2009).

Assays:
[1] = test system: human medulloblastoma cells (MED 283) stably transfected to express TrkA; settings: cited from earlier work
PC12 cells [2] = assay: Effect of pathway proteins and inhibitors on Karet-induced cell death in PC12 cells; assay type: cell-based, rat
TrkA [3] = assay: Co-immunoprecipitation of HA-Karet constructs with TrkA; assay type: binding; settings: co-transfected Hek or NNR5 cells, anti-HA IP
Experimental: (§1) FIG. 3c is a co-immunoprecipitation assay depicting co-immunoprecipitation of HA-Karet with TrkA in COS cells. Karet tagged with the HA epitope was immunoprecipitated with anti-HA antibody and the blot was incubated with anti-TrkA (RTA). In control experiments the HA-Karet was substituted with vector.
(§2) FIG. 3d is a co-immunoprecipitation assay depicting interaction of Karet and TrkA in NNR5 cells transfected with TrkA.
(§3) FIG. 3e is a co-immunoprecipitation assay depicting co-immunoprecipitation of HA-Karet with TricA in co-transfected NNR5 cells immunoprecipitated with anti-HA (Roche) and Western blot with the anti-TrkA antibody C14 (Santa Cruz).
(§4) FIGS. 4a-c are co-immunoprecipitation assay results depicting the influence of NGF treatment on TrkA-Karet interaction. FIG. 4a depicts that TrkA-Karet interaction occurred prior to NGF treatment and was enhanced after ligand stimulation for 10 minutes (10 m) or 2 hours (2 h). HA-Karet was electroporated into cell line PC12, and the cells were treated with 50 ng/ml NGF for the indicated time periods in order to activate p75 and TrkA. Karet tagged with the HA epitope was immunoprecipitated with anti-HA antibody, the precipitated proteins were separated electrophoretically, and gel blots were incubated with anti-TrkA antibody (RTA). FIG. 4b depicts that necdin seems to compete with TrkA for binding to Karet. myc-Karet was electroporated into necdin stable cell line, and the cells were treated with 50 ng/ml NGF for the indicated time periods. Karet tagged with the myc epitope was immunoprecipitated with anti-myc antibody, the precipitated proteins were separated electrophoretically, and gel blots were incubated with anti-TrkA antibody (RTA). […] A blot from the same experiment was stripped and re-incubated with anti-necdin antibody. The arrow indicates the glycosylated form of TrkA (molecular weight of 140 kDa).
(§5) FIG. 7b is an immunoprecipitation assay depicting that the PTB domain-containing Karet(1-228) mutant, but not Karet(228-453) co-immunoprecipitates with TrkA in NNR5 cells. Truncation mutants tagged with the HA epitope were immunoprecipitated with anti-HA antibody, the precipitated proteins were separated electrophoretically, and gel blots were incubated with anti-TrkA (RTA).
(§6) FIGS. 24a-d depict co IP of Ha Karet with TrkA, TrkB, TrkC, p75 from co-transfected Hek cells. Cells were co-transfected with Ha Karet or control vector and TrkA, TrkB, TrkC or p75. Cells were lysed with NP40, the HA-beads (beads conjugated to anti-HA antibody) were blocked with Hek lysate, and elution was done for 30 minutes at 37° C. […]

PC12 cells [4] = assay: Viability / death of PC12 cells after transfection with Karet constructs (Live/dead kit, FACS, cell counting, Hoechst); assay type: cell-based, rat
Experimental: FIG. 5a is a bar-graph of FACS data depicting 50 percent death of PC12 cells overexpressing Karet. Shown is a FACS analysis of PC12 viability 15 hours after transfection with Ha-Karet or control vector using Live/dead kit (Molecular probes), T-test=0.003.
FIG. 5b is a series of fluorescence photomicrographs depicting death of PC12 cells caused by Karet overexpression. Shown is a live/dead kit analysis of PC12 cells overexpressing Ha-Karet (left panels) versus control vector-transfected cells (right panels). Live cell are stained in green, dead cells are stained in red. Upper panels each show red fluorescence only (left picture) and green fluorescence only (right picture) pairs, and lower panels each show combined red and green fluorescence (left picture) and light microscopy images (right picture) pairs.
FIG. 5d is a pair of Hoechst stain histology photomicrographs depicting condensation of chromatin indicating apoptosis in PC12 cells expressing Karet, but not in control cells transfected with vector only.
FIG. 5e is a histogram depicting that Karet expression induces cell death of TrkA expressing cells, which is increased by NGF treatment and is decreased by necdin. PC12 or PC12 necdin stable cell line were electroporated with Karet or GFP control and incubated with or without 50 ng/ml NGF for 12 hours. Cells were counted and result presented as percent of control.
PC12 cells were transfected with Ha Karet, PTB, non PTB and their combinations. Cells were analyzed by FACS 18 hours after transfection using the dead/live kit. N=3; * p<0.05; **p<0.001;
The lower panel is a histogram depicting that Karet-mediated cell death correlates well with expression levels of the Karet protein. PC12 Tet-on cells were electroporated with Ha-Karet cloned under inducible promoter and incubated for 24 hours with different concentrations of doxycycline. Cells transfected with Karet but not treated with doxycycline served as control. Cells were counted and the results were determined as percent of control. The upper panel is a control Western blot depicting increased Karet expression with increased concentrations of doxycycline. Cells transfected with Karet and treated with doxycycline were lysed in NP-40 buffer and subjected to SDS-PAGE analysis. Similar amount of protein was loaded and blotted for Karet expression with Ha antibody. Proteins levels were checked with anti-tubulin antibody.
FIG. 18a—PC12 were transfected with Ha Karet, Karet F217V, PTB F217V or a control vector (pcDNA3) and 18 hours after transfection the effect of Karet or Karet mutants on cell death was determined using the dead/live kit and FACS analysis. Results are presented in percentages as compared to cells transfected with the control vector. N=3 **P<0.001. […] FIG. 18b—Cells were lysed 24 hours after transfection, fractionated on SDS-PAGE and immunoblot for anti Ha (Covance).
FIG. 19 is a histogram depicting FACS analysis of Karet-induced death. PC12 cells were co-transfected with Karet and the PTB, non-PTB or the F217V mutant at different ratios (1:1, 1:2, 1:3) and 18 hours after transfection the cells were analyzed by FACS using the dead/live kit.
Viability of cells was evaluated using the Live/dead viability/cytotoxicity kit (Cat. No. L-3224), Molecular Probes, Inc., Eugene, Oreg., USA, according to manufacturer's instructions.

TrkA [5] = target: T1, TrkA (Rattus norvegicus, UniProt P35739); assay: Co-immunoprecipitation of HA-Karet constructs with TrkA; assay type: binding; settings: PC12 cells transfected with Karet; 50 ng/ml NGF, 10 minutes and 2 hours
T1 construct: expressed in transfected cells
Experimental: as §1, §2, §3, §4, §5, §6

T1 sequence (P35739 33-799): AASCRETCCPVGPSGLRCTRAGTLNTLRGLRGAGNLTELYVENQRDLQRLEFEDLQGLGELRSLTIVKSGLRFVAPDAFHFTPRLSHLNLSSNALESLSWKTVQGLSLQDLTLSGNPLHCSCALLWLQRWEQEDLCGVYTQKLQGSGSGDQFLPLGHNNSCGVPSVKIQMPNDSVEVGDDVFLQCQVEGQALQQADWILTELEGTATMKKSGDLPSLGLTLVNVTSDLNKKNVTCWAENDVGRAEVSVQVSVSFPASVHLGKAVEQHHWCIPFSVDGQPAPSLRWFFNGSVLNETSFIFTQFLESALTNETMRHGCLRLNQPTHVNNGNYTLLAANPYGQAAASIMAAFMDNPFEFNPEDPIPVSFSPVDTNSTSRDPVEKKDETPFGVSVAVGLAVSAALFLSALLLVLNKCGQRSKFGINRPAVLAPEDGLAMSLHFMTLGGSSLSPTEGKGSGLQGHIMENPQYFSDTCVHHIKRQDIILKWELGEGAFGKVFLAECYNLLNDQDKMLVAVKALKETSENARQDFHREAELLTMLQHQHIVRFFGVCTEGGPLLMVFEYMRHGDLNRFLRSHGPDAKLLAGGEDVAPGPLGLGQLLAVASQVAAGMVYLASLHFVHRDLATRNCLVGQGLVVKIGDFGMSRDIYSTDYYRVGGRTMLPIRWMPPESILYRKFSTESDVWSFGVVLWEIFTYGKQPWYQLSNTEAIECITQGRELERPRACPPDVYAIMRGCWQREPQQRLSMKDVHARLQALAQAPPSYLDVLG

For `COC(=O)[C@@]1(O)C[C@H]2O[C@]1(C)n1c3ccccc3c3c4c(c5c6ccccc6n2c5c31)C(=O)NC4` [K252a, reference compound], the “effect on NGF-induced apoptosis” value ([1]; TrkA-medulloblastoma cells) is given as “inhibited” and the “effect on cell death effect of Karet” value (PC12 cells [2]; PC12 cells expressing Karet, 12 hours, different concentrations of K252A) is given as “diminished the cell death effect of Karet”.

In the case of `C[S+]([O-])c1ccc(-c2nc(-c3ccncc3)c(-c3ccc(F)cc3)[nH]2)cc1` (centres unmarked) [SB203580, reference compound], the “effect on cell death induction by Karet” value (PC12 cells [2]; PC12 electroporated with Karet, 10 micromolar SB203580) is reported as “did not affect cell death induction”.

For “Karet(228-453): C-terminal truncation mutant of mouse Karet, amino acid residues 228-453 (SEQ ID NO:8)”, the “co-immunoprecipitation / interaction with TrkA” value (TrkA [3]) was “does not” and the “effect on Karet-induced death in competition assay” value (PC12 cells [4]; PC12 co-transfected with Karet at ratios 1:1, 1:2, 1:3, FACS 18 hours after transfection) was “reduced Karet-induced death”.

In the case of “NGF: nerve growth factor, neurotrophin ligand of TrkA”, the “cell death on NGF treatment” value ([1]; MED 283 cells expressing TrkA) is listed as “significant levels of cell death”, the “effect of NGF on TrkA-Karet interaction” value (TrkA [5]) is listed as “enhanced” and the “additional increase of death by NGF treatment” value (PC12 cells [4]; PC12 cells overexpressing Karet, 50 ng/ml NGF, 12 hours) is listed as 30%.
